Measurements as given in paper PMC6271079, “Amino Acid Derivatives of Ligustrazine-Oleanolic Acid as New Cytotoxic Agents” (Molecules, 2014).

Columns and labels:
mice = details: via gavage in mice; earlier studies, no reference given; cited from earlier work
HepG2 = assay: MTT cytotoxicity assay, HepG2; format: cell-based; details: HepG2, 72 h, human hepatoma cells
Procedure: (§1) The cytotoxicity of these compounds was tested on five cells lines by the standard MTT assay. The human cancer cells lines (HepG2, HT-29, Hela, BGC-823) and MDCK cells were provided by the Chinese Academy of Medical Sciences Peking Union Medical College. The tumor cells were cultured in RPMI 1640 medium supplemented with 10% (v/v) fetal bovine serum and 1% (v/v) penicillin-streptomycin (Thermo Technologies, New York, NY, USA) at 37 °C in a humidified atmosphere with 5% CO2. The growing tumor cells at a density 3 × 10^3 cells/mL were exposed to various concentrations of the tested drugs and incubated in a 96-well microtiter plate for 72 h (37 °C, 5% CO2). After MTT solution (20 μL, 5 mg/mL) was added to each well, the plate was incubated for a further 4 h. Then the media was removed. Formazan crystals were dissolved with DMSO (150 μL). After mixing well, the absorbance was quantified at 490 nm with a BIORAD 550 spectrophotometer (Bio-rad Life Science Development Ltd., Beijing, China). Wells containing no drugs were used to be blanks. The IC50 values were defined as the concentration of compounds that produced a 50% reduction of surviving cells and calculated using the Logit-method. Tumor cell growth inhibitory rate was calculated in the following Equation (1): % inhibition = (1 − Sample group OD/Control group OD) × 100%(1)

HT-29 = assay: MTT cytotoxicity assay, HT-29; format: cell-based; details: HT-29, 72 h, human colorectal cancer cells
Procedure: as §1

BGC-823 = assay: MTT cytotoxicity assay, BGC-823; format: cell-based; details: BGC-823, 72 h, human gastric cancer cells
Procedure: as §1

MDCK cells = assay: MTT toxicity (nephrotoxicity) evaluation, MDCK; format: cell-based; details: Canis lupus familiaris, MDCK, 72 h, Madin-Darby canine kidney cells
Procedure: as §1

Hela = assay: MTT cytotoxicity assay, Hela; format: cell-based, human; details: Homo sapiens, 72 h, cervical cancer cells
Procedure: as §1

[1] = logP by shake flask-ultraviolet spectrophotometry; format: physicochemical; details: n-caprylic alcohol-water (octanol/water); pH 6.8, n-caprylic alcohol-water, shake flask-UV; read-out: logP (octanol-water partition coefficient)
From the text: Lipophilicity (ClogP) is used in rational drug design as a key factor related to the cell transmembrane transport or other biological processes. ClogP values can either be calculated experimentally or predicted by means of commercially available programs. In this work, ClogP values of the TOA-amino acid derivatives were predicted using Sybyl-X 2.0 (Tripos, Certara Inc., St. Louis, MO, USA). […] To determine the octanol-water partition coefficient (logP), a shake flask-ultraviolet spectrophotometry method was used to determine the concentration of 6a and TOA in the water phase and organic phase at pH 6.8 with n-caprylic alcohol-water as the simulation system. […] However, the better activity connected with the increases of these amino acid conjugates’ solubility is worthy of further study.

NF-κB/p65 and COX-2 = tested on: NF-κB/p65 and COX-2; design: method as in PMID 24147349; details: S180 mice; cited from earlier work

In the case of Cc1nc(C)c(COC(=O)[C@]23CCC(C)(C)CC2C2=CCC4[C@@]5(C)CC[C@H](O)C(C)(C)C5CC[C@@]4(C)[C@]2(C)CC3)nc1C (stereo partly drawn) [TOA, 3β-Hydroxyolea-12-en-28-oic acid-3,5,6-trimethylpyrazine-2-methyl Ester], the LD50 (mice) is given as “exceeded 6.0 g/kg”, the IC50 (HepG2) is given as 21.4 µM and the IC50 (HT-29) is given as over 25 µM. The IC50 (BGC-823) was over 25 µM, the IC50 (MDCK cells) was over 25 µM and the IC50 (Hela) was 8.68 µM. The logP [1] was 6.11 and the “Expression of NF-κB/p65 and COX-2” value (NF-κB/p65 and COX-2) was “prevented the expression”.
